Reference: US7169785B2, “Methods and compositions of novel triazine compounds” (Reddy US Therapeutics, Inc., priority 2001, dated 2007)
Where two headings read alike, the source gives them in different places.

System: IL-6
Assay: TNF-α-induced IL-6 production determined by IL-6 ELISA in HAEC
Type: cell-based, human
Settings: HAEC; for activity at 10 µM / activity at 5 µM: 24 h; for Inhibition of TNF-induced IL6 production: class of % of control IL6 production; for activity at 5 µM: read-out: % IL6 production compare to TNF stimulation of IL6 (100%), @ 5 uM
Method: Human aortic endothelial cells (HAEC, Clonetics) were cultured according to manufacturer in growth medium (Clonetics): basal medium containing human epidermal growth factor, hydrocortisone, vascular endothelial growth factor, heparin binding growth factor-B, long R3-insulin-like growth factor-1, ascorbic acid, gentamicin/amphotericin and 5% FBS. These cell were allowed to reach at least 90% confluency before subjected to experimental treatments. Glycated human serum albumin (G-HSA) was from US Biologicals. Tumor necrosis factor α was from R&D Systems.
[…] All treatments, compound-added and controls were carried out in serum free media containing 0.2% albumin. Media from all conditions were collected and used for IL-6 ELISA.
IL-6 ELISA was carried out using human IL-6 DuoSet ELISA development kit as described by manufacturer (R&D Systems). Mouse anti-human Il-6 was used as the capture antibody (2 ug/ml) and biotinylated goat anti-human IL-6 (200 ng/ml) was used as the detection antibody. Culture media were incubated with capture antibody (in 96 well) for 2 h at room temperature. Wells were washed three times with wash buffer (0.05% tween-20 in phosphate buffered saline (PBS) pH 7.4) followed by incubation with detection antibody for 2 h at room temperature. Following three washes wells were incubated with Streptavidin-HRP for 20 min. Color development was read at 450 nm in a Microplate reader.

[1] = Homo sapiens, Compds tested @ 10 uM, IL6, read-out: % IL6 production compare to TNF stimulation of IL6 (100%)
[2] = Homo sapiens, read-out: % IL6 production compare to TNF stimulation of IL6 (100%), Compds tested @ 10 uM, IL6

| Compound | activity at 10 µM [1] [%] | also measured |
| --- | --- | --- |
| CCN1CCCC1CNc1nc(Nc2ccc(N3CCN(C)CC3)cc2)nc(NC2CCCCCC2)n1 (stereo not shown) [Compound 28, N^2-cycloheptyl-N^4-[(1-ethyl-2-pyrrolidinyl)methyl]-N^6-[4-(4-methyl-1-piperazinyl)phenyl]-1,3,5-triazine-2,4,6-triamine] | 23 | – |
| CCN1CCCC1CNc1nc(Nc2ccc(OC)c(Cl)c2)nc(NC2CCCCCC2)n1 (stereo not shown) [Compound 48, N^2-(3-chloro-4-methoxyphenyl)-N^4-cycloheptyl-N^6-[(1-ethyl-2-pyrrolidinyl)methyl]-1,3,5-triazine-2,4,6-triamine] | – | IC50 (Homo sapiens, IL6, unit inferred, read-out: IC50 (TNF stimulation of IL6)): 4.3 µM |
| CCNc1nc(NCC2CCCN2CC)nc(Nc2ccc(OC)c(F)c2)n1 (stereo not shown) [Compound 51, N^2-ethyl-N^4-[(1-ethyl-2-pyrrolidinyl)methyl]-N^6-(3-fluoro-4-methoxyphenyl)-1,3,5-triazine-2,4,6-triamine] | 1 | – |
| CCN1CCCC1CNc1nc(Nc2ccc(OC)c(F)c2)nc(NC2CCCCC2)n1 (stereo not shown) [Compound 55, N^2-cyclohexyl-N^4-[(1-ethyl-2-pyrrolidinyl)methyl]-N^6-(3-fluoro-4-methoxyphenyl)-1,3,5-triazine-2,4,6-triamine] | 1 | – |
| CCN1CCCC1CNc1nc(Nc2ccc(OC)c(F)c2)nc(NC2CCCC2)n1 (stereo not shown) [Compound 56, N^2-cyclopentyl-N^4-[(1-ethyl-2-pyrrolidinyl)methyl]-N^6-(3-fluoro-4-methoxyphenyl)-1,3,5-triazine-2,4,6-triamine] | 1 | – |
| CCN1CCCC1CNc1nc(Nc2ccc(OC)c(F)c2)nc(NC2CCC(C)CC2)n1 (stereo not shown) [Compound 60, N^2-[(1-ethyl-2-pyrrolidinyl)methyl]-N^4-(3-fluoro-4-methoxyphenyl)-N^6-(4-methylcyclohexyl)-1,3,5-triazine-2,4,6-triamine] | 1 | – |
| CCN1CCCC1CNc1nc(Nc2ccc(OC)c(F)c2)nc(N2CCN(C(C)=O)CC2)n1 (stereo not shown) [Compound 63, 6-(4-acetyl-1-piperazinyl)-N^2-[(1-ethyl-2-pyrrolidinyl)methyl]-N^4-(3-fluoro-4-methoxyphenyl)-1,3,5-triazine-2,4-diamine] | 26 | – |
| CCOC(=O)N1CCN(c2nc(NCC3CCCN3CC)nc(Nc3ccc(OC)c(F)c3)n2)CC1 (stereo not shown) [Compound 64, Ethyl 4-{4-{[(1-ethyl-2-pyrrolidinyl)methyl]amino}-N^6-[(3-fluoro-4-methoxyphenyl)amino]-1,3,5-triazin-2-yl}-1-piperazinecarboxylate] | 23 | – |
| COc1ccc(Nc2nc(NC3CCCCCC3)nc(NC(C)(C)C)n2)cc1F [Compound 77, N^2-(tert-butyl)-N^4-cycloheptyl-N^6-(3-fluoro-4-methoxyphenyl)-1,3,5-triazine-2,4,6-triamine] | 21 | – |
| COc1ccc(Nc2nc(NCc3ccccc3)nc(NC3CCCCCC3)n2)cc1F [Compound 78, N^2-benzyl-N^4-cycloheptyl-N^6-(3-fluoro-4-methoxyphenyl)-1,3,5-triazine-2,4,6-triamine] | 47 | – |
| COc1ccc(Nc2nc(NC3CCCCCC3)nc(N3CCCCCC3)n2)cc1F [Compound 83, N^2-cycloheptyl-N^4-(3-fluoro-4-methoxyphenyl)-6-hexahydro-1H-azepin-1-yl-1,3,5-triazine-2,4-diamine] | 18 | – |
| COc1ccc(Nc2nc(NC3CCCCCC3)nc(N3CCCC4CCCCC43)n2)cc1F (stereo not shown) [Compound 84, N^2-cycloheptyl-N^4-(3-fluoro-4-methoxyphenyl)-6-octahydro-1(2H)-quinolinyl-1,3,5-triazine-2,4-diamine] | 33 | – |
| COC[C@@H]1CCCN1c1nc(Nc2ccc(OC)c(F)c2)nc(NC2CCCCCC2)n1 [Compound 86, N^2-cycloheptyl-N^4-(3-fluoro-4-methoxyphenyl)-6-[(2S)-2-(methoxymethyl)-1-pyrrolidinyl]-1,3,5-triazine-2,4-diamine] | 19 | – |
| COc1ccc(Nc2nc(NC3CCCCCC3)nc(N3CCN(C(C)=O)CC3)n2)cc1F [Compound 88, 6-(4-acetyl-1-piperazinyl)-N^2-cycloheptyl-N^4-(3-fluoro-4-methoxyphenyl)-1,3,5-triazine-2,4-diamine] | 19 | – |
| COc1ccc(Nc2nc(NCc3ccco3)nc(NC3CCCCCC3)n2)cc1F [Compound 91, N^2-cycloheptyl-N^4-(3-fluoro-4-methoxyphenyl)-N^6-(2-furanylmethyl)-1,3,5-triazine-2,4,6-triamine] | 28 | – |
| COc1ccc(Nc2nc(NCCN3CCCCC3)nc(NC3CCCCCC3)n2)cc1F [Compound 96, N^2-cycloheptyl-N^4-(3-fluoro-4-methoxyphenyl)-N^6-[2-(1-piperidinyl)ethyl]-1,3,5-triazine-2,4,6-triamine] | 6 | – |
| COc1ccc(Nc2nc(NCCCCCO)nc(N(C)C3CCN(C)CC3)n2)cc1Cl [Compound 108, 5-{4-(3-Chloro-4-methoxy-phenylamino)-6-[methyl-(1-methyl-piperidin-4-yl)-amino]-[1,3,5]triazin-2-ylamino}-pentan-1-ol] | – | Inhibition of TNF-induced IL6 production: +++ (between about 25 and about 50% of control IL6 production); activity at 10 µM [2]: 25% |
| CCCCN(CCC)c1nc(Nc2ccc(OC)c(Cl)c2)nc(N(C)C2CCN(C)CC2)n1 [Compound 111, N-Butyl-N′-(3-chloro-4-methoxy-phenyl)-N″-methyl-N″-(1-methyl-piperidin-4-yl)-N-propyl-[1,3,5]triazine-2,4,6-triamine] | – | Inhibition of TNF-induced IL6 production: + (between about 75 and 100% of control IL6 production); activity at 5 µM (Homo sapiens, IL6): 46%; activity at 10 µM [2]: > 90% |
| CCCCN(CCC)c1nc(Nc2ccc(OC)c(Cl)c2)nc(N(C)C2CCNCC2)n1 [Compound 112, N^2-Butyl-N^4-(3-chloro-4-methoxy-phenyl)-N^6-methyl-N^6-piperidin-4-yl-N^2-propyl-1,3,5-triazine-2,4,6-triamine] | – | Inhibition of TNF-induced IL6 production: + (between about 75 and 100% of control IL6 production); activity at 5 µM (Homo sapiens, IL6): 90% |
| CCN1CCC[C@H]1CNc1nc(NCC2CCCCC2)nc(Nc2ccc(OC)c(F)c2)n1 [Compound 141, N^2-cyclohexylmethyl-N^4-((S)-1-ethyl-pyrrolidin-2-ylmethyl)-N^6-(3-fluoro-4-methoxyphenyl)-1,3,5-triazine-2,4,6-triamine] | 23.4 | – |
| CCN1CCC[C@@H]1CNc1nc(NCC2CCCCC2)nc(Nc2ccc(OC)c(F)c2)n1 [Compound 142, N^2-cyclohexylmethyl-N^4-((R)-1-ethyl-pyrrolidin-2-ylmethyl)-N^6-(3-fluoro-4-methoxyphenyl)-1,3,5-triazine-2,4,6-triamine] | 21.6 | – |
| CCN1CCC[C@H]1CNc1nc(NC2CCCCCC2)nc(N(CC#N)c2ccccc2)n1 [Compound 143, ({4-cycloheptylamino-6-[((S)-1-ethyl-pyrrolidin-2-ylmethyl)-amino]-1,3,5-triazin-2-yl}-phenyl-amino)-acetonitrile] | 18.9 | – |
| COc1ccc(Nc2nc(NC3CC3)nc(NC3CC3)n2)cc1F [Compound 157, N,N′-dicyclopropyl-N″-(3-fluoro-4-methoxy-phenyl)-1,3,5-triazine-2,4,6-triamine] | 60.5 | – |
| CN1CCC(N(C)c2nc(Nc3ccc4ccccc4c3)nc(NC3CCCCCC3)n2)CC1 [Compound 172, N-Cycloheptyl-N′-methyl-N′-(1-methyl-piperidin-4-yl)-N″-naphthalen-2-yl-[1,3,5]triazine-2,4,6-triamine] | – | % IL6 production compare to TNF stimulation to IL6 (100%) (Compds tested @ 10 uM): 18% |
